Literature values as cited in patent publication US8153159B2, “Modafinil modified release pharmaceutical compositions” (Cephalon, Inc., priority 2003, dated 2012).

Tests used:
monkeys = settings: single administration, Duteil et al. 1990
mice = settings: single administration, Duteil et al. 1990
humans = settings: Bastuji et al. 1988

NC(=O)C[S+]([O-])C(c1ccccc1)c1ccccc1 (stereo not drawn) [Modafinil, 2-(benzhydrylsulfinyl)acetamide]
nocturnal activity (monkeys): increased nocturnal activity
locomotor activity (mice): increased locomotor activity
treatment of idiopathic hypersomnia and narcolepsy (humans): successfully tested
